Molecules are shown by their SMILES. pIC50: −log10 of the molar value. Where only a bound is given, the exact number is not on record here.

Experimental findings from US7102009B2, “Substituted amine derivatives and methods of use” (Amgen Inc., priority 2001, dated 2006) are described below.

The experiment concerns Human Umbilical Vein Endothelial cells (VEGF-stimulated HUVEC proliferation). The experiment in a line: HUVEC Proliferation Assay (VEGF-stimulated). In kind it is cell-based. Conditions: VEGF 50 ng/mL, 72 h incubation, CyQuant readout, read-out: inhibited VEGF-stimulated HUVEC proliferation at a level below (IC50). In outline: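 Pooled-donor HUVECs (passage 2–3) seeded in DMEM+10% FBS for 22 h, then pre-treated 2–3 h with five-point, five-fold compound dilutions (0.25% DMSO final). Stimulated with 50 ng/mL VEGF (bFGF 20 ng/mL on separate plates) for 72 h at 37 °C. CyQuant fluorescence (485/530 nm) after freeze-thaw; IC50 from 4-parameter fit.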

As for `CCCN1CCN(c2cc(NC(=O)c3cccnc3Nc3ccc4cn[nH]c4c3)ccc2C(C)(C)C)CC1` [Example 102, N-[4-tert-Butyl-3-(4-propyl-piperazin-1-yl)-phenyl]-2-(1H-indazol-6-ylamino)-nicotinamide], the pIC50 was > 7.30.

On to `CN1CCN(Cc2cc(NC(=O)c3cccnc3Nc3ccc4cn[nH]c4c3)ccc2C(F)(F)C(F)(F)F)CC1` [Example 108, 2-(1H-Indazol-6-ylamino)-N-[3-(4-methyl-piperazin-1-ylmethyl)-4-pentafluoroethyl-phenyl]-nicotinamide], for which the pIC50 was > 7.30.

As to `CC(C)Oc1ccc(NC(=O)c2cccnc2Nc2ccc3cn[nH]c3c2)cc1` [Example 28, [2-(1H-Indazol-6-ylamino)(3-pyridyl)]-N-[4-(methylethoxy)phenyl]carboxamide], the pIC50 was > 7.30.

Consider `CC(C)(C)c1ccc(NC(=O)c2cccnc2Nc2ccc3cn[nH]c3c2)cc1NCCO` [Example 115, N-[4-tert-Butyl-3-(2-hydroxy-ethylamino)-phenyl]-2-(1H-indazol-6-ylamino)-nicotinamide], for which the pIC50 was > 7.30.

For `O=C(Nc1ccc(C(F)(F)F)c(OCCN2CCCC2)c1)c1cccnc1Nc1ccc2cn[nH]c2c1` [Example 86, 2-(1H-Indazol-6-ylamino)-N-[3-(2-pyrrolidin-1-yl-ethoxy)-4-trifluoromethyl-phenyl]-nicotinamide], the pIC50 is > 7.30.

For `CC(C)(C)c1ccc(NC(=O)c2cccnc2Nc2ccc3cn[nH]c3c2)cc1NC(=O)CN1CCCC1` [Example 587, N-(4-(1,1-Dimethylethyl)-3-((1-pyrrolidinylacetyl)amino)phenyl)-2-(1H-indazol-6-ylamino)-3-pyridinecarboxamide], the pIC50 was > 7.30.

For `COc1ccc(C(C)(C)C)cc1NC(=O)c1cccnc1Nc1ccc2cn[nH]c2c1` [Example 25, N-[5-(tert-Butyl)-2-methoxyphenyl][2-(1H-indazol-6-ylamino)(3-pyridyl)]carboxamide], the pIC50 was > 7.30.

For the molecule `CC(C)N1CCC(COc2cc(NC(=O)c3cccnc3Nc3ccc4cn[nH]c4c3)ccc2C(F)(F)C(F)(F)F)CC1` [Example 79, 2-(1H-Indazol-6-ylamino)-N-[3-(1-isopropyl-piperidin-4-ylmethoxy)-4-pentafluoroethyl-phenyl]-nicotinamide], the pIC50 was > 7.30.

On to `CN1CCC(C(C)(C)c2ccc(NC(=O)c3cccnc3Nc3ccc4cn[nH]c4c3)cc2)CC1` [Example 88, 2-(1H-Indazol-6-ylamino)-N-{4-[1-methyl-1-(1-methyl-piperidin-4-yl)-ethyl]-phenyl}-nicotinamide], for which the pIC50 is > 7.30.

Take `CC1(C)CNC(=O)c2cc(NC(=O)c3cccnc3Nc3ccc4cn[nH]c4c3)ccc21` [Example 105, N-(4,4-Dimethyl-1-oxo-1,2,3,4-tetrahydro-isoquinolin-7-yl)-2-(1H-indazol-6-ylamino)-nicotinamide]: the pIC50 is > 7.30.

Turning to `O=C(Nc1ccc(Oc2ccccc2)cc1)c1cccnc1Nc1ccc2cn[nH]c2c1` [Example 43, 2-(1H-Indazol-6-ylamino)-N-(4-phenoxy-phenyl)-nicotinamide], the pIC50 was > 7.30.

As to `CC(=O)N1CC(C)(C)c2ccc(NC(=O)c3cccnc3Nc3ccc4cn[nH]c4c3)cc21` [Example 87, N-(1-Acetyl-3,3-dimethyl-2,3-dihydro-1H-indol-6-yl)-2-(1H-indazol-6-ylamino)-nicotinamide], the pIC50 was > 7.30.

Consider `O=C(Nc1cc(CCCN2CCCCC2)cc(C(F)(F)F)c1)c1cccnc1Nc1ccc2cn[nH]c2c1` [Example 71, 2-(1H-Indazol-6-ylamino)-N-[3-(3-piperidin-1-yl-propyl)-5-trifluoromethyl-phenyl]-nicotinamide], for which the pIC50 is > 7.30.

For `CN1CCC[C@H]1COc1cc(NC(=O)c2cccnc2Nc2ccc3cn[nH]c3c2)cc(C(F)(F)F)c1` [Example 104, 2-(1H-Indazol-6-ylamino)-N-[3-(1-methylpyrrolidin-2-ylmethoxy)-5-trifluoromethyl-phenyl]-nicotinamide], the pIC50 was > 7.30.

As for `O=C(Nc1cc(CCCN2CCOCC2)cc(C(F)(F)F)c1)c1cccnc1Nc1ccc2cn[nH]c2c1` [Example 70, 2-(1H-Indazol-6-ylamino)-N-[3-(3-morpholin-4-yl-propyl)-5-trifluoromethyl-phenyl]-nicotinamide], the pIC50 was > 7.30.

For the molecule `CC(C)(C)c1ccc(NC(=O)c2cccnc2Nc2ccc3cn[nH]c3c2)cc1NC1CCNCC1` [Example 124, N-[4-tert-Butyl-3-(piperidin-4-ylamino)-phenyl]-2-(1H-indazol-6-ylamino)-nicotinamide], the pIC50 was > 7.30.

Consider `O=C(Nc1ccc(C(F)(F)C(F)(F)C(F)(F)C(F)(F)F)cc1)c1cccnc1Nc1ccc2cn[nH]c2c1` [Example 20, [2-(1H-Indazol-6-ylamino)(3-pyridyl)]-N-[4-(1,1,2,2,3,3,4,4,4-nonafluorobutyl)phenyl]carboxamide], for which the pIC50 is > 7.30.

Turning to `CC(C)(C)c1ccc(NC(=O)c2ccc(F)nc2Nc2ccc3cn[nH]c3c2)cc1` [Example 66, N-[4-(tert-Butyl)phenyl][6-fluoro-2-(1H-indazol-6-ylamino)(3-pyridyl)]carboxamide], the pIC50 was > 7.30.

Take `O=C(Nc1cc(OC[C@@H]2CCCN2)cc(C(F)(F)F)c1)c1cccnc1Nc1ccc2cn[nH]c2c1` [Example 97, 2-(1H-Indazol-6-ylamino)-N-[3-(2S-pyrrolidin-2-ylmethoxy)-5-trifluoromethyl-phenyl]-nicotinamide]: the pIC50 was > 7.30.

`CN(C)CCCc1cc(NC(=O)c2cccnc2Nc2ccc3cn[nH]c3c2)cc(C(F)(F)F)c1` [Example 51, N-{3-[3-(Dimethylamino)propyl]-5-(trifluoromethyl)phenyl}[2-(1H-indazol-6-ylamino)(3-pyridyl)]carboxamide]: the pIC50 was > 7.30.

Take `O=C(Nc1cccc(C(F)(F)F)c1)c1cccnc1Nc1ccc2cn[nH]c2c1` [Example 9, [2-(1H-Indazol-6-ylamino)(3-pyridyl)]-N-[3-(trifluoromethyl)phenyl]carboxamide]: the pIC50 is > 7.30.

Turning to `COc1ccc(NC(=O)c2cccnc2Nc2ccc3cn[nH]c3c2)cc1OCCN(C)C` [Example 37, N-{3-[2-(Dimethylamino)ethoxy]-4-methoxyphenyl)[2-(1H-indazol-6-ylamino)(3-pyridyl)]carboxamide], the pIC50 is > 7.30.

Turning to `CN(C)CC(=O)Nc1cc(NC(=O)c2cccnc2Nc2ccc3cn[nH]c3c2)ccc1C(C)(C)C` [Example 613, N-(4-(1,1-Dimethylethyl)-3-((N,N-dimethylglycyl)amino)phenyl)-2-(1H-indazol-6-ylamino)-3-pyridinecarboxamide], the pIC50 was > 7.30.

`CC(C)(C)c1ccc(NC(=O)c2cccnc2Nc2ccc3cn[nH]c3c2)cc1CCCN1CCCCC1` [Example 54, N-[4-(tert-Butyl)-3-(3-piperidylpropyl)phenyl][2-(1H-indazol-6-ylamino)(3-pyridyl)]carboxamide]: the pIC50 is > 7.30.

Consider `COc1ccc(NC(=O)c2cccnc2Nc2ccc3cn[nH]c3c2)cc1OC1CCN(C)CC1` [Example 38, [2-(1H-Indazol-6-ylamino)(3-pyridyl)]-N-[4-methoxy-3-(1-methyl(4-piperidyl)oxy)phenyl]carboxamide], for which the pIC50 was > 7.30.
